Source: ChEMBL document CHEMBL5032491, “New Dibenzoquinoxalines Inhibit Triple-Negative Breast Cancer Growth by Dual Targeting of Topoisomerase 1 and the c-MYC G-Quadruplex” (J Med Chem, 2021)
Blank lines part the entries; values can stand above or below the compound they belong to. Activity calls are given as the source filed them. The calls are words filed in the database; no cut-off is given here.

What was measured:
[1] = target: T1, DNA topoisomerase 1 (Homo sapiens) (UniProt P11387); assay: Inhibition of human topoisomerase 1 mediated relaxation of supercoiled pHOT1 DNA at 5 to 20 uM incubated for 30 mins by agarose gel electrophoresis; details: dose 5-20 µM
T1 sequence (whole entry): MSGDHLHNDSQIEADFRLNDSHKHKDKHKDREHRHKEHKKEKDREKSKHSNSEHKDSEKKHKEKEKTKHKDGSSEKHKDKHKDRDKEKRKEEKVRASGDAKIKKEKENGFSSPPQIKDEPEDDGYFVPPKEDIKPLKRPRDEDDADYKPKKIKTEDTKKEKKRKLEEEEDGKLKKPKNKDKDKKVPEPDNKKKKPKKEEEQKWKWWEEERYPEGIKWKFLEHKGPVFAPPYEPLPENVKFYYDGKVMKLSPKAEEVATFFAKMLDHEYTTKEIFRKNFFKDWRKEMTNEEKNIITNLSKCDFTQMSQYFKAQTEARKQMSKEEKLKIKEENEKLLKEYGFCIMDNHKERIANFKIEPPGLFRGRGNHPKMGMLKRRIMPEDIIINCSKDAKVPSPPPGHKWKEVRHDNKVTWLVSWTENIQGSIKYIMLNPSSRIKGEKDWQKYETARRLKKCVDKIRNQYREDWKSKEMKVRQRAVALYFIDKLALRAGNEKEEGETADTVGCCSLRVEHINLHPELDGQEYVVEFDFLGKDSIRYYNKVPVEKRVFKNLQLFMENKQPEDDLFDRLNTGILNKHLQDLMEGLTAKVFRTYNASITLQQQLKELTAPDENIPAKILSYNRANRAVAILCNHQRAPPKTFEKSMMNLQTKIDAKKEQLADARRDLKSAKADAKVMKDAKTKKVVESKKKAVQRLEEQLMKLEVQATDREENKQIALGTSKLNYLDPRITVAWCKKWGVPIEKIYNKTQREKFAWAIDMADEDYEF

[2] = tested on: MDA-MB-231; assay: Antiproliferative activity against human MDA-MB-231 cells assessed as inhibition of cell growth incubated for 24 hrs by CCK8 assay; assay type: functional, cell-based; details: for IC50: MDA-MB-231, 24 h
[3] = tested on: Quadruplex DNA; assay: Inhibition of c-myc G4-quadruplex DNA transcriptional activity in human MDA-MB-231 cells incubated for 24 hrs by RT-PCR analysis; assay type: cell-based
[4] = tested on: MDA-MB-231; assay: Antitumor activity against human MDA-MB-231 cells xenografted in BALB/c mouse assessed as tumor growth inhibition measured at 2.5 mg/kg, ip administered every other day for 20 days; assay type: functional
[5] = tested on: MDA-MB-231; assay: Antiproliferative activity against human MDA-MB-231 cells assessed as inhibition in cell growth at 20 uM incubated for 24 hrs by CCK8 assay; assay type: functional, cell-based
[6] = Toxicity in human MDA-MB-231 cells xenografted BALB/c mouse assessed as body weight loss at 2.5 mg/kg, ip administered every other day for 20 days; assay type: organism-based; details: in vivo, 480 h, time 20 day
[7] = tested on: MDA-MB-231; assay: Induction of cell cycle arrest in human MDA-MB-231 cells assessed as accumulation at sub-G1 phase at 2 uM incubated for 24 hrs by flow cytometry (reference value: 2.8%); assay type: functional
[8] = tested on: MDA-MB-231; assay: Induction of cell cycle arrest in human MDA-MB-231 cells assessed as accumulation at G2/M phase at 1 uM incubated for 24 hrs by flow cytometry (reference value: 20.4%); assay type: functional
[9] = tested on: MDA-MB-231; assay: Induction of DNA damage in human MDA-MB-231 cells assessed as increase in gammaH2AX incubated for 24 hrs by western blotting analysis; assay type: functional, cell-based
[10] = Toxicity in human MDA-MB-231 cells xenografted BALB/c mouse assessed as body weight loss at 2.5 to 5 mg/kg, ip administered every other day for 20 days; assay type: organism-based; details: in vivo, 480 h, dose 2.5-5 mg/kg, time 20 day
[11] = tested on: Quadruplex DNA; assay: Binding affinity to c-myc G4-quadruplex DNA (unknown origin) by UV-Vis spectrophotometric method; assay type: nucleic-acid assay
[12] = target: Quadruplex DNA; assay: Binding affinity to c-myc G4-quadruplex DNA (unknown origin) assessed as dissociation constant by fluorescence spectroscopy; assay type: nucleic-acid assay
[13] = tested on: MDA-MB-231; assay: Anticlonogenic activity against human MDA-MB-231 cells assessed as inhibition of colony formation incubated for 7 days by crystal violet staining based assay; assay type: functional, cell-based; details: time 7.0 day
[14] = tested on: Quadruplex DNA; assay: Stabilization of c-Myc G-quadruplex DNA (unknown origin ) assessed as increase in melting temperature at 6 uM by CD spectroscopy; assay type: nucleic-acid assay
[15] = tested on: Quadruplex DNA; assay: Binding affinity to c-myc G4-quadruplex DNA (unknown origin) at 1 uM in presence of ct-DNA by fluorescence spectroscopy; assay type: nucleic-acid assay
[16] = tested on: MDA-MB-231; assay: Induction of cell cycle arrest in human MDA-MB-231 cells assessed as accumulation at sub-G1 phase at 0.5 uM incubated for 24 hrs by flow cytometry (reference value: 2.8%); assay type: functional
[17] = tested on: CA46; assay: Downregulation of EXON 2 transcription in human CA46 cells incubated for 24 hrs by RT-PCR analysis; assay type: functional, cell-based
[18] = tested on: CA46; assay: Downregulation of EXON 1 transcription in human CA46 cells incubated for 24 hrs by RT-PCR analysis; assay type: functional, cell-based
[19] = Antiproliferative activity against human BJ fibroplast assessed as inhibition of cell growth incubated for 24 hrs by CCK8 assay; details: Fibroblast
[20] = tested on: MDA-MB-231; assay: Inhibition of VEGF gene transcription expression in human MDA-MB-231 cells at 0.5 to 2 uM incubated for 24 hrs by RT-PCR analysis; assay type: functional, cell-based; details: dose 0.5-2 µM
[21] = tested on: MDA-MB-231; assay: Induction of cell cycle arrest in human MDA-MB-231 cells assessed as accumulation at sub-G1 phase at 1 uM incubated for 24 hrs by flow cytometry (reference value: 2.8%); assay type: functional
[22] = tested on: MDA-MB-231; assay: Antitumor activity against human MDA-MB-231 cells xenografted in ip dosed BALB/c mouse assessed as tumor growth inhibition administered every other day for 20 days; assay type: functional, organism-based; details: dose 2.5-5 […], time 20.0 day
[23] = tested on: MDA-MB-231; assay: Inhibition of c-Myc gene transcription expression in human MDA-MB-231 cells at 0.5 to 2 uM incubated for 24 hrs by RT-PCR analysis; assay type: functional, cell-based; details: dose 0.5-2 µM
[24] = tested on: MDA-MB-231; assay: Inhibition of cell migration in human MDA-MB-231 cells incubated for 24 hrs by wound scrape assay; assay type: functional, cell-based
[25] = tested on: MDA-MB-231; assay: Antiproliferative activity against human MDA-MB-231 cells assessed as inhibition in cell growth at 2.5 uM incubated for 24 hrs by CCK8 assay; assay type: functional, cell-based
[26] = tested on: MDA-MB-231; assay: Inhibition of BCL-2 gene transcription expression in human MDA-MB-231 cells at 0.5 to 2 uM incubated for 24 hrs by RT-PCR analysis; assay type: functional, cell-based; details: dose 0.5-2 µM
[27] = tested on: MDA-MB-231; assay: Inhibition of c-Myc protein expression in human MDA-MB-231 cells at 0.5 to 2 uM incubated for 24 hrs by Western blot analysis; assay type: functional, cell-based; details: dose 0.5-2 µM
[28] = tested on: MDA-MB-231; assay: Induction of cell cycle arrest in human MDA-MB-231 cells assessed as accumulation at S phase at 0.5 uM incubated for 24 hrs by flow cytometry (reference value: 19.2%); assay type: functional
[29] = tested on: Calf thymus DNA; assay: Binding affinity to duplex calf thymus DNA assessed as dissociation constant by fluorescence spectroscopy; assay type: nucleic-acid assay, Bos taurus
[30] = tested on: MDA-MB-231; assay: Induction of cell cycle arrest in human MDA-MB-231 cells assessed as accumulation at G0/G1 phase at 0.5 uM incubated for 24 hrs by flow cytometry (reference value: 56.6%); assay type: functional
[31] = tested on: MDA-MB-231; assay: Induction of cell cycle arrest in human MDA-MB-231 cells assessed as accumulation at G0/G1 phase at 2 uM incubated for 24 hrs by flow cytometry (reference value: 56.6%); assay type: functional
[32] = tested on: CA46; assay: Downregulation of c-MYC transcription expression in human CA46 cells incubated for 24 hrs by RT-PCR analysis; assay type: functional, cell-based
[33] = tested on: Quadruplex DNA; assay: Binding affinity to c-myc G4-quadruplex DNA Pu22 (unknown origin) by NMR spectroscopy; assay type: nucleic-acid assay
[34] = tested on: MDA-MB-231; assay: Induction of cell cycle arrest in human MDA-MB-231 cells assessed as accumulation at S phase at 1 uM incubated for 24 hrs by flow cytometry (reference value: 19.2%); assay type: functional
[35] = tested on: Calf thymus DNA; assay: Binding affinity to duplex calf thymus DNA assessed as dissociation constant; assay type: nucleic-acid assay, Bos taurus
[36] = tested on: MDA-MB-231; assay: Inhibition of HRAS gene transcription expression in human MDA-MB-231 cells at 0.5 to 2 uM incubated for 24 hrs by RT-PCR analysis; assay type: functional, cell-based; details: dose 0.5-2 µM
[37] = tested on: MDA-MB-231; assay: Induction of cell cycle arrest in human MDA-MB-231 cells assessed as accumulation at G2/M phase at 0.5 uM incubated for 24 hrs by flow cytometry (reference value: 20.4%); assay type: functional
[38] = target: T1, DNA topoisomerase 1 (Homo sapiens); assay: Poison activity at human topoisomerase 1 assessed as formation of cleavage complex using pHOT-1 DNA as substrate incubated for 30 mins by agarose gel electrophoresis
[39] = tested on: MDA-MB-231; assay: Induction of cell cycle arrest in human MDA-MB-231 cells assessed as accumulation at S phase at 2 uM incubated for 24 hrs by flow cytometry (reference value: 19.2%); assay type: functional
[40] = tested on: MDA-MB-231; assay: Induction of cell cycle arrest in human MDA-MB-231 cells assessed as accumulation at G0/G1 phase at 1 uM incubated for 24 hrs by flow cytometry (reference value: 56.6%); assay type: functional
[41] = tested on: MDA-MB-231; assay: Antitumor activity against human MDA-MB-231 cells xenografted in BALB/c mouse assessed as tumor growth inhibition measured at 5 mg/kg, IP administered every other day for 20 days; assay type: functional; details: MDA-MB-231, ip, 480 h, time 20 day, read-out: TGI
[42] = tested on: MDA-MB-231; assay: Induction of cell cycle arrest in human MDA-MB-231 cells assessed as accumulation at G2/M phase at 2 uM incubated for 24 hrs by flow cytometry (reference value: 20.4%); assay type: functional
[43] = target: T1, DNA topoisomerase 1 (Homo sapiens); assay: Inhibition of human topoisomerase 1 assessed as DNA intercalation at 1.2 to 10 uM using relaxed pHOT-1 DNA as substrate preincubated with DNA for 10 mins followed by enzyme addition and measured after 30 mins by agarose gel electrophoresis; details: dose 1.2-10 µM, time 40.0 min

SMILES: COc1cccc2c1C(=O)c1c(O)c3c(c(O)c1C2=O)C[C@@](O)(C(=O)CO)C[C@@H]3O[C@H]1C[C@H](N)[C@H](O)[C@H](C)O1 [DOXORUBICIN]
Activity ([4]; time 20.0 day): Dose-Dependent Effect | Activity [5]: Active | Activity [6]: Toxic

SMILES: COc1ccc2nc3c4ccc(N5CCN(C)CC5)cc4c4cc(N5CCN(C)CC5)ccc4c3nc2c1
Activity [7]: 20.2% | Activity [8]: 24.9% | Activity [9]: Active | Activity [10]: Non-Toxic | Activity [11]: Active | Kd [12]: 0.6 µM | Activity [13]: Dose-Dependent Effect | Tm [14]: 30 °C | Activity [15]: Active | Activity [16]: 3.1% | Activity [17]: inactive | Activity [18]: Active | IC50 [19]: 5.6 µM | inhibition in vivo at 2.5 mg/kg ([4]; MDA-MB-231, ip, 480 h, time 20 day, read-out: TGI): 52% | inhibition [20]: inactive | Activity [21]: 4.7% | Activity [22]: Dose-Dependent Effect | inhibition [23]: Active | inhibition [24]: Active | Activity [25]: Active | inhibition [1]: Active | inhibition [26]: inactive | Activity [2]: Dose-Dependent Effect | inhibition [3]: Active | inhibition [27]: inactive | Activity [28]: 20.3% | Kd [29]: 12.7 µM | Activity [30]: 54.4% | Activity [31]: 38.9% | Activity [32]: inactive | Activity [33]: Active | Activity [34]: 20.4% | Kd [35]: 8.3 µM | inhibition [36]: inactive | Activity [37]: 21.7% | Activity [38]: inactive | Activity [39]: 16.6% | Activity [40]: 50% | inhibition in vivo at 5 mg/kg [41]: 66% | Activity [42]: 21.2% | inhibition [43]: Active

SMILES: CN1CCN(c2ccc3c(c2)c2cc(N4CCN(C)CC4)ccc2c2nc4cc(C(F)(F)F)ccc4nc32)CC1
inhibition [1]: inactive | IC50 [2]: 5.6 µM | inhibition [3]: inactive

Continued, in another order:

inhibition [1]: Active | IC50 [2]: 1.1 µM
SMILES: CN1CCN(c2ccc3c(c2)c2cc(N4CCN(C)CC4)ccc2c2nc4ccccc4nc32)CC1
inhibition [3]: Active

inhibition [1]: Active | IC50 [2]: 1.1 µM
SMILES: CN1CCN(c2ccc3c(c2)c2cc(N4CCN(C)CC4)ccc2c2nc4cc(F)ccc4nc32)CC1
inhibition [3]: Active

inhibition [1]: inactive | IC50 [2]: 2.2 µM
SMILES: CN1CCN(c2ccc3c(c2)c2cc(N4CCN(C)CC4)ccc2c2nc4cc(Oc5ccccc5)ccc4nc32)CC1
inhibition [3]: inactive

inhibition [1]: Active | IC50 [2]: 2.7 µM
SMILES: Cc1cc2nc3c4ccc(N5CCN(C)CC5)cc4c4cc(N5CCN(C)CC5)ccc4c3nc2cc1C
inhibition [3]: Active
